Reference: patent publication US20220125784A1, “METHODS AND COMPOUNDS FOR INHIBITION OF INACTIVATION OF VOLTAGE-GATED SODIUM CHANNELS” (SIMON FRASER UNIVERSITY, priority 2019, published 2022)
Like-named read-outs stand apart in the source and are kept apart here.

Assays:
Type in all cases: cell-based
[1] = molecular target: T1, cardiac (Nav1.5) sodium channel (Homo sapiens, UniProt Q14524); test: High-throughput patch clamp (QPatch/Qube 384), double voltage-pulse protocol, stable HEK293 Nav1.5; details: for deceleration of fast inactivation onset kinetics compared to control: preconditioning −120 mV
T1 construct: expressed in transfected cells
Protocol: (§1) In another set of studies, we used high-throughput patch clamp techniques using the QPatch (Qube) 384 to screen compounds against both neuronal and cardiac sodium channels. We used a different electrophysiology assay (double voltage-pulse protocol; FIG. 3C) to detect potentiators, inhibitors, and compounds that do both. The protocol assesses these parameters at both rest and partially inactivated holding potentials. For this assay, we used nine compounds from Table 2 that were diluted to 50 μM in DMSO for biophysical assessment of channel gating. The extracellular solution used in these experiments was Ringer solution.
(§2) The nine compounds were screened against the wild type (WT) cardiac (Nav1.5) and neuronal (Nav1.1) sodium channel α-subunits stably expressed in Human Embryonic Kidney (HEK293) along with the β1-subunit.
(§3) Currents were assessed by a test pulse of 0 mV from a holding potential at rest (−120 mV) before preconditioning at the appropriate V1/2 for the sodium channel subtype (V1/2=−90 mV and V1/2=−65 mV for Nav1.5 and Nav1.1, respectively) for 10 s. Parameters were tested following 5 min of incubation with the compounds and normalized to control (vehicle). Peak current, the time constant of inactivation, and the area under the curve (AUC) were measured.

[2] = molecular target: T2, neuronal (Nav1.1) sodium channel (Homo sapiens, UniProt P35498); test: High-throughput patch clamp (QPatch/Qube 384), double voltage-pulse protocol, stable HEK293 Nav1.1
T2 construct: expressed in transfected cells
Protocol: as §1, §2, §3

WT Nav1.5-α subunits [3] = molecular target: T3, WT Nav1.5-α subunits (Homo sapiens, UniProt Q14524); test: Whole-cell patch clamp, single voltage-pulse protocol (peak INa, conductance, fast inactivation) in transiently transfected HEK293 cells; details: for Peak INa −20 mV: normalized peak INa, 37° C.
T3 construct: expressed in transfected cells; host or cells: HEK293 (transient transfection)
Protocol: (§4) In one set of studies, we used a whole-cell patch clamp technique with single voltage-pulse protocols (FIGS. 3A-B) to characterize compounds ZINC38767171, ZINC39699427, ZINC40014265, ZINC64470729, ZINC64470737 and ZINC64470745. Whole-cell patch clamp was performed in extracellular solution containing (in mM): 140 NaCl, 4 KCl, 2 CaCl2, 1 MgCl2, and 10 HEPES (pH 7.4 adjusted with CsOH). The intracellular pipettes were dipped in dental wax and thermally polished to attain a resistance of 1.0-1.5 MΩ. The intracellular solutions contained (in mM): 130 CsF, 10 NaCl, 10 HEPES, and 10 EGTA titrated to pH 7.4. The six compounds, ZINC38767171, ZINC39699427, ZINC40014265, ZINC64470729, ZINC64470737 and ZINC64470745, chosen for electrophysiology characterization, ordered from MolPort (Easy compound ordering services), were diluted to 10 μM, 50 μM, and 100 μM in extracellular solution for biophysical assessment of channel gating.
(§5) The six compounds were screened against wild type (WT) Nav1.5-α subunits at the optimal physiological temperature of 37° C. Human Embryonic Kidney (HEK293) cells were transfected with WT Nav1.5-α subunits (transient transfections). The α subunits were co-expressed with the β1 subunit and eGFP (enhanced green fluorescence protein) in a 2:1:2 ratio, respectively.
Conductance was measured by a protocol that depolarized the membrane from −100 mV to +80 mV in increments of +5 mV for 19 ms. Prior to the test pulse, channels were allowed to recover from fast inactivation at −130 mV for 197 ms. The tested compounds had no effect on the conductance midpoint (FIGS. 6A-F).
At voltages greater than −50 mV, the fast inactivation T values were calculated from the mono-exponential fit to the decay of sodium current.

WT Nav1.5-α subunits [4] = molecular target: T3, WT Nav1.5-α subunits; test: Whole-cell patch clamp, use-dependence (slow inactivation) protocol at 6 Hz in transiently transfected HEK293 cells
Protocol: as §4, §5
Slow inactivation (SI) was indirectly determined by measuring use-dependence, which is a physiologically-relevant protocol. The protocol includes a series of 500 110 ms depolarizing pulses to 0 mV followed by a 55 ms-90 mV recovery pulse at a frequency 6 Hz. With repetitive depolarizations, Nav1.5 channels accumulate into slow inactivation.

[5] = HEK293, holding potential −120 mV, read-out: Normalized inhibition of peak sodium current
[6] = 50 μM, holding potential −120 mV

T1 sequence (Q14524 whole entry): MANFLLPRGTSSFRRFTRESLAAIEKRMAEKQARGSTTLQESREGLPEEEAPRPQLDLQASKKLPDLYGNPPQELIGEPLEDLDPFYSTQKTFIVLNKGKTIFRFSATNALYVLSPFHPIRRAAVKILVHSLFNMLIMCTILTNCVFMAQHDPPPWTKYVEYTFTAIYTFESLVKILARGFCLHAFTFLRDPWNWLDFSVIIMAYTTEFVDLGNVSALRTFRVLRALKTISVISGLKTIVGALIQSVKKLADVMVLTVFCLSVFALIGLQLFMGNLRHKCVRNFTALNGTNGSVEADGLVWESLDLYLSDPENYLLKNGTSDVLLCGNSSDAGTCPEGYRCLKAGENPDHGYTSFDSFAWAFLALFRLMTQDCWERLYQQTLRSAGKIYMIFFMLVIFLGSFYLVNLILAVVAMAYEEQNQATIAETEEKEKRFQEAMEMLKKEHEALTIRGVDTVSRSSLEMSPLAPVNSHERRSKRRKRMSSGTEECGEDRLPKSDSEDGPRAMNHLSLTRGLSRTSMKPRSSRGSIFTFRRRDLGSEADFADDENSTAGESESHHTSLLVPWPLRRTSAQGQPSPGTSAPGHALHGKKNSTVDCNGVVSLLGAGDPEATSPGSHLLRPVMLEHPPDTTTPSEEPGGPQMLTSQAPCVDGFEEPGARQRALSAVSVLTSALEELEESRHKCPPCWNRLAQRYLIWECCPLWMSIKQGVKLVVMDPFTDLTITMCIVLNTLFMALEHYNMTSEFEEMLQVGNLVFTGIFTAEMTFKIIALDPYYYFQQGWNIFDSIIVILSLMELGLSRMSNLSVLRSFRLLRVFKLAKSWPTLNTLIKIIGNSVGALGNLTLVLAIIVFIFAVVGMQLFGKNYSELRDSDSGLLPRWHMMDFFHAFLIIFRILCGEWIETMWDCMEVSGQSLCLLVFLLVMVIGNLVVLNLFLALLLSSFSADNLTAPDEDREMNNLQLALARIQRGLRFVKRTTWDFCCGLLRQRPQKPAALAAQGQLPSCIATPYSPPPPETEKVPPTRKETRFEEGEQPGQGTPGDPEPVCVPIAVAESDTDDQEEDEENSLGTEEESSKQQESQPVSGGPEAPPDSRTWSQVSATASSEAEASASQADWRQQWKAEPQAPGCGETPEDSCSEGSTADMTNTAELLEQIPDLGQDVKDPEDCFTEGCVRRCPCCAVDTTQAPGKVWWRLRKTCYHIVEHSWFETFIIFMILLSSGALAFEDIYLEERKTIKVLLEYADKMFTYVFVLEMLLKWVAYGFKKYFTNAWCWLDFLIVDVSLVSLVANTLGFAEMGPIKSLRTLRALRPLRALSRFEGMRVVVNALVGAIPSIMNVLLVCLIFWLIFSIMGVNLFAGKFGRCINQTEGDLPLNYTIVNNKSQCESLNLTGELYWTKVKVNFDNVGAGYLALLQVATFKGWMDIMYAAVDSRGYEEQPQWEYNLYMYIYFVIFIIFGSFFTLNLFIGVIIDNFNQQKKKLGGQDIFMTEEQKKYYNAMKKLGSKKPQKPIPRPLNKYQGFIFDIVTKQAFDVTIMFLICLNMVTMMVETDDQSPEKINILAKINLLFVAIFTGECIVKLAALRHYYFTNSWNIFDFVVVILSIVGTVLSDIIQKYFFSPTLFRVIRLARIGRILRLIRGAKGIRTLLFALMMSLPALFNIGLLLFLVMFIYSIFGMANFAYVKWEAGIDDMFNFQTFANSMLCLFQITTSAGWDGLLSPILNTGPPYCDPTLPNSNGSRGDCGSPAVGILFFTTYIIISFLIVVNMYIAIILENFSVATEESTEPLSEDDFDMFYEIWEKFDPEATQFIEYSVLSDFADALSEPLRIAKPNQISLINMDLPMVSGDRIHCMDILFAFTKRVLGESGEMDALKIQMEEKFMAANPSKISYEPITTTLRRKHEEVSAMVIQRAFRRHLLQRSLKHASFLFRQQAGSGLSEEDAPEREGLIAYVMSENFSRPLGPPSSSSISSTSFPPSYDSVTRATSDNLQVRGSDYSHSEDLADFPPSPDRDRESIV
T3 sequence (Q14524 whole entry): as above

Cc1nc(-n2cccc2)sc1C(=O)N=c1[nH]c2ccccc2[nH]1 [ZINC12323863, N-(1H-benzimidazol-2-yl)-4-methyl-2-pyrrol-1-yl-thiazole-5-carboxamide]
deceleration of fast inactivation onset kinetics compared to control ([1]; 50 μM): 1.5 fold
inhibition at 50 µM [1, 5]: ~32%
inhibition at 50 µM ([1]; HEK293, −90 mV for 10 s, read-out: Normalized inhibition of peak sodium current after 10 s pulse to mid-voltage potential): ~80%
effect on tau of inactivation from holding potential −120 mV ([2]; 50 μM): accelerates inactivation
normalized area under curve (AUC) ratio of activated sodium current [2, 6]: substantially reduces
inhibition at 50 µM [2, 5]: ~32%
inhibition at 50 µM ([2]; HEK293, −65 mV for 10 s, read-out: Normalized inhibition of peak sodium current after 10 s pulse to mid-voltage potential): ~80%

CN(C)[C@@H](CNC(=O)c1ccc2c(c1)=NC(=O)C(=O)N=2)c1ccco1 [ZINC40014265, N-[(2S)-2-(dimethylamino)-2-(2-furyl)ethyl]-2,3-dioxo-quinoxaline-6-carboxamide]
% Block −20 mV (WT Nav1.5-α subunits [3]; 10 μM): −20.00%
fast inactivation onset time constant FI +10 mV (WT Nav1.5-α subunits [3]; 10 μM): 0.23 ± 0.02 ms
fast inactivation onset time constant FI −10 mV (WT Nav1.5-α subunits [3]; 10 μM): 0.33 ± 0.03 ms
fast inactivation onset time constant FI −30 mV (WT Nav1.5-α subunits [3]; 10 μM): 0.63 ± 0.07 ms
fast inactivation onset time constant FI −50 mV (WT Nav1.5-α subunits [3]; 10 μM): 2.98 ± 0.84 ms
Peak INa −20 mV (WT Nav1.5-α subunits [3]; 10 μM): −0.80 ± 0.06
% Block −20 mV (WT Nav1.5-α subunits [3]; 50 μM): −37.00%
fast inactivation onset time constant FI +10 mV (WT Nav1.5-α subunits [3]; 50 μM): 0.25 ± 0.03 ms
fast inactivation onset time constant FI −10 mV (WT Nav1.5-α subunits [3]; 50 μM): 0.37 ± 0.05 ms
fast inactivation onset time constant FI −30 mV (WT Nav1.5-α subunits [3]; 50 μM): 0.69 ± 0.11 ms
fast inactivation onset time constant FI −50 mV (WT Nav1.5-α subunits [3]; 50 μM): 2.18 ± 0.70 ms
Peak INa −20 mV (WT Nav1.5-α subunits [3]; 50 μM): −0.63 ± 0.06
% Block −20 mV (WT Nav1.5-α subunits [3]; 100 μM): −41.00%
fast inactivation onset time constant FI +10 mV (WT Nav1.5-α subunits [3]; 100 μM): 0.26 ± 0.07 ms
fast inactivation onset time constant FI −10 mV (WT Nav1.5-α subunits [3]; 100 μM): 0.37 ± 0.09 ms
fast inactivation onset time constant FI −30 mV (WT Nav1.5-α subunits [3]; 100 μM): 0.69 ± 0.17 ms
fast inactivation onset time constant FI −50 mV (WT Nav1.5-α subunits [3]; 100 μM): 2.17 ± 0.73 ms
Peak INa −20 mV (WT Nav1.5-α subunits [3]; 100 μM): −0.59 ± 0.06
Peak INa Slope (WT Nav1.5-α subunits [3]; Hill curve slope): 1.064
IC50 (WT Nav1.5-α subunits [3]; Hill curve, single voltage-pulse protocol): 12.6 µM
UDI Block Slope (WT Nav1.5-α subunits [4]; Hill curve slope): 0.511
IC50 (WT Nav1.5-α subunits [4]; Hill curve, use-dependence at 6 Hz, read-out: UDI Block IC50): 269 µM
effect on peak INa [1, 6]: did not inhibit peak sodium current
normalized area under curve (AUC) ratio of activated sodium current [1, 6]: slightly increased
deceleration of fast inactivation onset kinetics compared to control ([1]; 50 μM): 1.5 fold
